Our source for the IC50 and melting point values is patent US8946225B2, “Derivatives of 2H pyridazin-3-ones, their preparation and their use as SCD-1 inhibitors” (Pierre Fabre Medicament, priority 2009, dated 2015).

The target of data set [1] is T1, SCD-1 (Homo sapiens, UniProt O00767).
T1 construct: addition of 125 μg of microsomal fraction of HepG2 cells; host or cells: HepG2 human hepatocarcinoma cells (microsomal fraction)
T1 sequence (O00767 1-359): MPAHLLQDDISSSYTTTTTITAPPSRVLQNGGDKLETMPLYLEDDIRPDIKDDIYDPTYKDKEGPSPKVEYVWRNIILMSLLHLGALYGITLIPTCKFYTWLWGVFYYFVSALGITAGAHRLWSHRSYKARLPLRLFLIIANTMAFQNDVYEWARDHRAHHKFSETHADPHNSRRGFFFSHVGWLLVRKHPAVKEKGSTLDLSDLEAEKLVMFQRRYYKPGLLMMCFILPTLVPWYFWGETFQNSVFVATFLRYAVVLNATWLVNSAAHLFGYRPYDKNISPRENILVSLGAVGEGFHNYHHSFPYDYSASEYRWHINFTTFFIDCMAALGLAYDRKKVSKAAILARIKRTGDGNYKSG
Put plainly: Human enzymatic activity of SCD-1 from microsomes of HepG2 cells (conversion of [14C] stearic acid to oleic acid, HPLC). The format is biochemical. To be noted: microsomal fraction of HepG2 cells, 62 μM stearic acid, 20 minutes at 37° C., vs vehicle 0.1% DMSO; read-out: HSCD-1 (HEPG2) IC50. The method, then:
In vitro: Human enzymatic activity of SCD-1 from microsomes of HepG2 cells after treatment with the inhibitor compounds (% inhibition).
HepG2 cells of human hepatocarcinoma (ATCC, HB-8065) are cultured at confluence then trypsinated. The cell residue is solubilized in 10 mM Tris buffer (pH 7.4) sucrose (250 mM) DTT (1 mM) then the cells are lysed by sonication. The microsomes are obtained after centrifuging at 10,000 g for 20 minutes at 4° C. followed by centifrugation of the supernatant at 100,000 g for 60 minutes at 4° C. The residue is solubilized in 10 mM Tris buffer (pH 7.4) sucrose (250 mM) at 4° C. and the microsomal proteins are assayed and stored at −196° C. (liquid nitrogen).
The enzymatic reaction measures the conversion of stearic acid (C18:0 fatty acid) into oleic acid (C18:1 fatty acid) by SCD-1. The enzymatic reaction is initiated by the addition of 125 μg of microsomal fraction of HepG2 cells to tubes (total reaction volume of 500 μl) containing 62 μM stearic acid (45 μM stearic acid and 17 μM [^14C] stearic acid) in 100 mM phosphate buffer (pH 7.16) with 7.2 mM ATP, 0.54 mM CoA, 6 mM MgCl2, 0.8 mM NADH and the inhibitor compound or vehicle (0.1% DMSO). The tubes are incubated for 20 minutes at 37° C. then the enzymatic reaction is halted by the addition of KOH (12%) and saponification for 30 minutes at 80° C. After acidification (3N HCl), the fatty acids are extracted twice with ethyl ether, evaporated under nitrogen before being solubilized in methanol/dichloromethane (3:1). The reaction product (C18:1) is separated from the reaction substrate (C18:0) by HPLC (Perkin Elmer, C18 reverse phase column) coupled with an in-line radioactivity detector (FlowOne). Enzymatic activity is measured in picomoles of stearic acid converted to oleic acid per minute and per mg of protein. For each inhibitor compound, an IC50 value is determined, compared with the reference enzymatic activity (vehicle 0.1% DMSO). Sterculic acid is the reference inhibitor compound (Gomez F. E., Bauman D. E., Ntambi J. M., Fox B. G. Effects of sterculic acid on stearoyl-CoA desaturase in differentiating […] adipocytes. Biochem Biophys Res Commun. 300 316-326 (2003).

As to `Cc1ccc(C(C)C)cc1OC1CCN(C(=O)CNc2ccnn(C)c2=O)CC1` [Example 16, 4-{2-[4-(5-Isopropyl-2-methyl-phenoxy)-piperidin-1-yl]-2-oxo-ethylamino}-2-methyl-2H-pyridazin-3-one], the melting point – broadly, the temperature, or range, at which the solid turns liquid – stood at 159 °C. Besides, the half-inhibitory concentration (IC50) (in general, the concentration that inhibits the measured activity by half) in data set [1] lay in the range of 30 to 100 nM.

In turn, `Cn1ncc(OCC(=O)N2CCC(Oc3cc(C(F)(F)F)ccc3Cl)CC2)cc1=O` [Example 24, 5-{2-[4-(2-Chloro-5-trifluoromethyl-phenoxy)-piperidin-1-yl]-2-oxo-ethoxy}-2-methyl-2H-pyridazin-3-one] yielded a melting point of 176 °C. Moreover, the 50% inhibitory concentration (IC50) in data set [1] was 1000 to 3000 nM.

For `Cn1ncc(OCC(=O)N2CCC(Oc3cc(Cl)ccc3Cl)CC2)cc1=O` [Example 25, 5-{2-[4-(2,5-Dichloro-phenoxy)-piperidin-1-yl]-2-oxo-ethoxy}-2-methyl-2H-pyridazin-3-one], the melting point came out at 163 °C. In addition, the IC50 in data set [1] was in the range of 1000 to 10000 nM.

With `Cn1nccc(NCC(=O)N2CC(Oc3ccccc3C(F)(F)F)C2)c1=O` [Example 27, 2-Methyl-4-{2-oxo-2-[3-(2-trifluoromethyl-phenoxy)-azetidin-1-yl]-ethylamino}-2H-pyridazin-3-one], the melting point worked out at 122 °C. Further, the 50% inhibitory concentration (IC50) in data set [1] is 3000 to 10000 nM.

Consider `Cn1nccc(NCC(=O)N2CCC(CNc3ccccc3C(F)(F)F)CC2)c1=O` [Example 31, 2-Methyl-4-(2-oxo-2-{4-[(2-trifluoromethyl-phenylamino)-methyl]-piperidin-1-yl}-ethylamino)-2H-pyridazin-3-one], for which the melting point is 182 °C. Besides, the IC50 in data set [1] is approximately 300 nM.

As to `Cn1nccc(NCC(=O)N2CCC(CNc3cc(C(F)(F)F)ccc3Cl)CC2)c1=O` [Example 32, 4-(2-{4-[(2-Chloro-5-trifluoromethyl-phenylamino)-methyl]-piperidin-1-yl}-2-oxo-ethylamino)-2-methyl-2H-pyridazin-3-one], the melting point stood at 64 °C. For the same molecule, the concentration for half-maximal inhibition (IC50) in data set [1] fell in the range of 300 to 1000 nM.

For `Cn1nccc(NCC(=O)N2CCC(COc3cc(C(F)(F)F)ccc3Cl)C2)c1=O` (stereo not shown) [Example 34, 4-{2-[3-(2-Chloro-5-trifluoromethyl-phenoxymethyl)-pyrrolidin-1-yl]-2-oxo-ethylamino}-2-methyl-2H-pyridazin-3-one], the melting point was 183 °C. Further, the IC50 in data set [1] fell in the range of 30 to 100 nM.

As for `Cn1nccc(NC(=O)C(=O)N2CCC(Oc3cc(C(F)(F)F)ccc3Cl)CC2)c1=O` [Example 35, 2-[4-(2-Chloro-5-trifluoromethyl-phenoxy)-piperidin-1-yl]-N-(2-methyl-3-oxo-2,3-dihydro-pyridazin-4-yl)-2-oxo-acetamide], the melting point worked out at 205 °C. In addition, in data set [1], the IC50 lay within 100 to 1000 nM.

As to `Cn1nccc(/C=C/C(=O)N2CCC(Oc3cc(C(F)(F)F)ccc3Cl)CC2)c1=O` [Example 36, 4-{(E)-3-[4-(2-Chloro-5-trifluoromethyl-phenoxy)-piperidin-1-yl]-3-oxo-propenyl}-2-methyl-2H-pyridazin-3-one], the melting point came to 154 °C. Also, the concentration for half-maximal inhibition (IC50) in data set [1] was in the range of 300 to 1000 nM.

As for `O=C(CNc1ccn[nH]c1=O)N1CCC(Oc2cc(C(F)(F)F)ccc2Cl)CC1` [Example 40, 4-{2-[4-(2-Chloro-5-trifluoromethyl-phenoxy)-piperidin-1-yl]-2-oxo-ethylamino}-2H-pyridazin-3-one], the melting point is 222 °C. Besides, the IC50 in data set [1] lay in the range of 10 to 100 nM.

`COc1cnn(C)c(=O)c1NCC(=O)N1CCC(Oc2cc(C(F)(F)F)ccc2Cl)CC1` [Example 51, 4-{2-[4-(2-Chloro-5-trifluoromethyl-phenoxy)-piperidin-1-yl]-2-oxo-ethylamino}-5-methoxy-2-methyl-2H-pyridazin-3-one] registered a melting point of 60 °C. For the same molecule, the IC50 in data set [1] is 100 to 1000 nM.

For the molecule `Cn1nccc(NC(=O)N2CCC(Oc3cc(C(F)(F)F)ccc3Cl)CC2)c1=O` [Example 52, 4-(2-Chloro-5-trifluoromethyl-phenoxy)-piperidine-1-carboxylic acid (2-methyl-3-oxo-2,3-dihydro-pyridazin-4-yl)-amide], the melting point was 148 °C. Moreover, the 50% inhibitory concentration (IC50) in data set [1] lay in the range of 30 to 100 nM.

The molecule `Cn1nccc(NC(=O)N2CCC(Oc3cc(F)ccc3Cl)CC2)c1=O` [Example 53, 4-(2-Chloro-5-fluoro-phenoxy)-piperidine-1-carboxylic acid (2-methyl-3-oxo-2,3-dihydro-pyridazin-4-yl)-amide] came in with a melting point of 116 °C. Further, the IC50 in data set [1] was in the range of 30 to 100 nM.

With `Cn1nccc(NC(=O)N2CCC(Oc3cc(C(F)(F)F)ccc3F)CC2)c1=O` [Example 54, 4-(2-fluoro-5-trifluoromethyl-phenoxy)-piperidine-1-carboxylic acid (2-methyl-3-oxo-2,3-dihydro-pyridazin-4-yl)-amide], the melting point was determined as 102 °C. Moreover, in data set [1], the 50% inhibitory concentration (IC50) lay in the range of 30 to 100 nM.

For `Cc1ccc(C)c(OC2CCN(C(=O)Nc3ccnn(C)c3=O)CC2)c1` [Example 55, 4-(2,5-dimethyl-phenoxy)-piperidine-1-carboxylic acid (2-methyl-3-oxo-2,3-dihydro-pyridazin-4-yl)-amide], the melting point is 108 °C. The IC50 in data set [1] is 100 to 1000 nM.

In the case of `Cc1ccc(Cl)c(OC2CCN(C(=O)Nc3ccnn(C)c3=O)CC2)c1` [Example 56, 4-(2-chloro-5-methyl-phenoxy)-piperidine-1-carboxylic acid (2-methyl-3-oxo-2,3-dihydro-pyridazin-4-yl)-amide], the melting point was found to be 133 °C. Moreover, the half-inhibitory concentration (IC50) in data set [1] was in the range of 100 to 1000 nM.

`Cc1ccc(C(C)C)cc1OC1CCN(C(=O)Nc2ccnn(C)c2=O)CC1` [Example 57, 4-(2-methyl-5-isopropyl-phenoxy)-pipéridine-1-carboxylic acid (2-methyl-3-oxo-2,3-dihydro-pyridazin-4-yl)-amide] showed a melting point of 104 °C. The half-maximal inhibitory concentration (IC50) in data set [1] lay within 10 to 100 nM.

Take `Cn1nccc(NC(=O)N2CCC(Oc3cccc(C(F)(F)F)c3)CC2)c1=O` [Example 58, 4-(5-trifluoromethyl-phenoxy)-piperidine-1-carboxylic acid (2-methyl-3-oxo-2,3-dihydro-pyridazin-4-yl)-amide]: the melting point was found to be 101 °C. Besides, the IC50 in data set [1] was in the range of 10 to 100 nM.

As for `Cc1ccccc1OC1CCN(C(=O)Nc2ccnn(C)c2=O)CC1` [Example 59, 4-(2-methyl-phenoxy)-piperidine-1-carboxylic acid (2-methyl-3-oxo-2,3-dihydro-pyridazin-4-yl)-amide], the melting point came to 124 °C. Further, the half-inhibitory concentration (IC50) in data set [1] was approximately 1000 nM.

As to `Cn1nccc(NC(=O)N2CCC(Oc3ccc(F)c(C(F)(F)F)c3)CC2)c1=O` [Example 60, 4-(4-fluoro-5-trifluoromethyl-phenoxy)-piperidine-1-carboxylic acid (2-methyl-3-oxo-2,3-dihydro-pyridazin-4-yl)-amide], the melting point came out at 127 °C. In addition, in data set [1], the IC50 lay in the range of 100 to 1000 nM.

As for `Cn1nccc(NC(=O)N2CCC(Oc3cc(F)ccc3C(F)(F)F)CC2)c1=O` [Example 61, 4-(5-fluoro-2-trifluoromethyl-phenoxy)-piperidine-1-carboxylic acid (2-methyl-3-oxo-2,3-dihydro-pyridazin-4-yl)-amide], the melting point came out at 145 °C. In addition, in data set [1], the IC50 is 10 to 100 nM.

`Cn1nccc(NC(=O)N2CCC(Oc3cc(Cl)ccc3Cl)CC2)c1=O` [Example 62, 4-(2,5-dichloro-phenoxy)-piperidine-1-carboxylic acid (2-methyl-3-oxo-2,3-dihydro-pyridazin-4-yl)-amide] registered a melting point of 125 °C. Besides, the concentration for half-maximal inhibition (IC50) in data set [1] was determined as 30 nM.

Molecule `Cn1nccc(NC(=O)N2CCC(Oc3cc(Br)ccc3Cl)CC2)c1=O` [Example 63, 4-(2-chloro-5-bromo-phenoxy)-piperidine-1-carboxylic acid (2-methyl-3-oxo-2,3-dihydro-pyridazin-4-yl)-amide] yielded a melting point of 124 °C. In addition, the half-inhibitory concentration (IC50) in data set [1] is 30 nM.
